Data published in patent publication US7449537B2, “Antineoplastic polyalkoxyalkylsiloxanes and methods of use thereof” (NDSU Research Foundation, priority 2001, dated 2008).

Columns and labels:
Format in all cases: cell-based, human
[1] = tested on: 3-cell line panel MCF7, NCI-H460, SF-268; assay: DTP screen, overall activity call over the 3-cell line panel; set-up: key to Activity: Active: Compounds which reduce the growth of any one of the cell lines to a value of +32% or less (negative numbers indicate cell kill) are generally considered to be sufficiently “active”; conditions: for Activity: 1.00 E-04 Molar; for antineoplastic activity in the DTP screen: three test cell lines
Source text: (§1) For the past 10 years, the Developmental Therapeutics Program (DTP) of the National Cancer Institute (NCI) has used an in vitro model consisting of 60 human tumor cell lines as the primary anticancer screen (see, J. Natl. Cancer Inst., 83:757-766, (1991)). […] In view of this, the DTP now uses a 3-cell line panel consisting of the MCF7(breast carcinoma) cell line, the NCI-H460 (lung carcinoma) cell line, and the SF-268 (CNS glioma) cell line as its primary anticancer (antineoplastic) assay. This 3-cell line, single-dose assay has been in use by DTP for several years for the evaluation of combinatorial libraries and has proven to be an effective pre-screen for compounds with antineoplastic activity.
(§2) In the DTP protocol, each cell line is inoculated and preincubated on a microtiter plate. Test agents are then added at a single concentration and the culture incubated for 48 hours. End-point determination are made with sulforhodamine B, a protein-binding dye. Results for each test agent are reported as the percent of growth of the treated cells normalized against the growth of the corresponding untreated control cells, i.e., a reported value of +100% refers to cell growth equivalent to that of the corresponding untreated control cells. […] Compounds which reduce the growth of any one of the cell lines to a value of +32% or less (negative numbers indicate cell kill) are generally considered to be sufficiently “active” to be selected for further evaluation by NCI in a full panel of 60 tumor cell lines over a 5-log dose range.
(§3) Two poly((aminofunctional alkoxy)-alkylsiloxane) compounds were tested for antineoplastic activity in the DTP screen. The two compounds (linear poly((aminofunctional alkoxy)-alkylsiloxanes) 5 and 3) were prepared according to the procedures described in Examples 2 and 5 above, respectively. […] This compound includes 1,3-N,N-dimethylamino-2-propoxy groups.

[2] = tested on: MCF7 (breast carcinoma) cell line; assay: DTP 3-cell line single-dose antineoplastic pre-screen (sulforhodamine B); conditions: 1.00 E-04 Molar, 48 hours, growth relative to untreated control cells; negative = cell kill
Source text: as §1, §2, §3

[3] = tested on: NCI-H460 (lung carcinoma) cell line; assay: as above; conditions: 1.00 E-04 Molar, 48 hours, growth relative to untreated control cells; negative = cell kill
Source text: as §1, §2, §3

[4] = tested on: SF-268 (CNS glioma) cell line; assay: as above; conditions: 1.00 E-04 Molar, 48 hours, growth relative to untreated control cells; negative = cell kill
Source text: as §1, §2, §3

| Structure (SMILES) | Activity [1] | antineoplastic activity in the DTP screen [1] | Growth Percentages (Breast) MCF7 [2] | Growth Percentages (Lung) NCI-H460 [3] | Growth Percentages (CNS) SF-268 [4] |
| --- | --- | --- | --- | --- | --- |
| C[Si](C)(C)O[Si](C)(OCCCN)O[Si](C)(OCCCN)O[Si](C)(C)C (stereo not shown) [Compound 3, bis-(trimethylsiloxy)-1,3-dimethyl-1,3-(3-amino-1-propoxy)siloxane] | Inactive | inactive | – | – | – |
| CN(C)CC(CN(C)C)O[Si](C)(O[Si](C)(C)C)O[Si](C)(OC(CN(C)C)CN(C)C)O[Si](C)(C)C (stereo not shown) [Compound 5, bis-(trimethylsiloxy)-1,3-dimethyl, 1,3-(1,3-(N,N-dimethylamino)-2-propoxy)siloxane] | Active | showed antineoplastic activity against all three test cell lines | −5% | −16% | −24% |
